Reference: US20120010245A1, “TRANSDERMAL PHARMACEUTICAL COMPOSITIONS COMPRISING A SERM” (BESINS HEALTHCARE LUXEMBOURG SARL, priority 2008, published 2012)
Values after ≈ are worked out from the molar mass of the structure shown. Values joined by “and” are separate entries in the source; they are usually repeats but may differ in a detail not shown here. Equal entries are not always repeated. Structures can show the parent of a compound that is named as a salt. Where two headings read alike, the source gives them in different places.

Tests used:
[1] = Stability in analysis medium (cetrimide solution, 3%); assay type: physicochemical; conditions: 3% cetrimide solution
[2] = Skin permeation study in side-by-side diffusion cells; assay type: in vitro ADME, pig
Method: Skin permeation studies were carried out using opaque side-by-side diffusion cells with an effective diffusion area of 0.71 cm^2. […] The receptor solution was a 3% w/v cetrimide solution and allowed sink conditions to be maintained. The receptor phase was magnetically stirred at 100 rpm. Dermatomed abdominal pig skin (750 μm) was used. Skin was allowed to hydrate with isotonic saline solution for 1 h before the experiment was started. […] Experiments were performed under complete occlusion. Post-application, at scheduled times (1, 9, 20 and 24 hours), 1 ml samples were taken from the receiver compartment and replaced with the same volume of fresh, temperature-equilibrated receptor fluid. Samples were filtered through 0.45 μm PVDF membrane filters. The amount of endoxifen in the samples was determined by HPLC using the method described above.

[3] = Solubility studies (saturated solubility, HPLC); assay type: physicochemical; conditions: for solubility: aqueous with cosolvent or surfactant or cyclodextrin, thermodynamic from solid
Method: (§1) The saturated solubilities of endoxifen were determined in a mixture of absolute ethanol/water (70:30, w/w) by shaking an excess amount of drug in 1 ml of the co-solvent system for at least 24 hours at room temperature. The concentrations of the saturated solutions were determined by HPLC analysis after appropriate dilution.
as §1, with “clomifene citrate” for “endoxifen”, “series” for “mixture”, “of” for “of absolute”, “mixtures (40:60, 50:50, 60:40 and 70:30,” for “(70:30,”, “0.6” for “1”, “temperature. […]” for “temperature.”
The concentrations of the saturated solutions were determined by HPLC analysis after appropriate dilution.
as §1, with “toremifene” for “endoxifen”, “series” for “mixture”, “of” for “of absolute”, “mixtures (40:60, 50:50, 60:40 and 70:30,” for “(70:30,”, “temperature. […]” for “temperature.”

[4] = Solubility studies (saturated solubility, HPLC); assay type: physicochemical; conditions: 3% w/v cetrimide solution, aqueous with cosolvent or surfactant or cyclodextrin, thermodynamic from solid, room temperature
[5] = ethanol/water 70:30 w/w co-solvent system, room temperature, read-out: Solubility in ethanol:water (70:30 w/w)
[6] = 1 h, saturated solution of the drug in 70:30 w/w ethanol-water, — not defined here (Table 2: below LOD)
[7] = 1 hr, saturated solution in 70:30 w/w ethanol-water, donor 30.46 mg/mL

SMILES: CCC(=C(c1ccc(O)cc1)c1ccc(OCCN(C)C)cc1)c1ccccc1 [4-OH Tamoxifen, 1-[4-(2-N-dimethylaminoethoxy)phenyl]-1-(4-hydroxyphenyl)-2-phenylbut-1-ene]
- Stability in analysis medium ([1]; 30 hours): stable
- cumulative permeation, single cells ([2]; 9 hr, saturated solution in 70:30 v/v ethanol-water, — not defined here (Table 2: below LOD)): 4.1 μg/cm^2 and 3.3 μg/cm^2
- cumulative permeation, Average (±SD) ([2]; 20 hr, saturated solution in 70:30 v/v ethanol-water): 8.3 ± 4.7 μg/cm^2
- cumulative permeation, Average (±SD) ([2]; 24 hr, saturated solution in 70:30 v/v ethanol-water): 12.5 ± 6.3 μg/cm^2
- cumulative permeation, Average (±SD) ([2]; 24 hr, saturated solution in 70:30 v/v ethanol-water, listed as 4-OH tamoxifen): 12.5 μg/cm^2

SMILES: CC/C(=C(/c1ccc(OCCN(C)C)cc1)c1cccc(O)c1)c1ccccc1 [droloxifene citrate, 3-[(1E)-1-[4-[2-(Dimethylamino)ethoxy]phenyl]-2-phenyl-1-butenyl]phenol]
- solubility [3, 5]: 47.5 ± 1.7 mg/mL
- Stability in analysis medium ([1]; 24 hours): stable
- cumulative permeation, Mean (±SD) ([2]; 20 h, saturated solution in 70:30 w/w ethanol-water, donor 45.93±[…]): 0.62 ± 0.37 μg/cm^2
- solubility ([4]; n=2): 8.9 ± 0.2 mg/mL

SMILES: CN(C)CCOc1ccc(/C(=C(/CCCl)c2ccccc2)c2ccccc2)cc1 [toremifene]
- solubility ([3]; 3% w/v cetrimide solution, room temperature, read-out: Solubility in 3% cetrimide solution): 0.302 ± 0.014 mg/mL (≈ 744 µM)
- Saturated solubility, Expt 1-3 ([3]; EtOH:Water 40:60 w/w, single experiments): 0.0754 mg/mL and 0.074 mg/mL
- Saturated solubility, Expt 1-3 ([3]; EtOH:Water 50:50 w/w, single experiments): 0.333 mg/mL and 0.324 mg/mL
- Saturated solubility, Expt 1-3 ([3]; EtOH:Water 60:40 w/w, single experiments): 1.063 mg/mL and 1.009 mg/mL
- Saturated solubility, Expt 1-3 ([3]; EtOH:Water 70:30 w/w, single experiments): 2.698 mg/mL and 2.623 mg/mL
- solubility ([3]; ethanol/water 40:60 w/w co-solvent system, EtOH:Water 40:60 w/w, n=3, read-out: Saturated solubility, Average concentration ± SD): 0.0747 ± 0.0011 mg/mL (≈ 184 µM)
- solubility ([3]; ethanol/water 40:60 w/w co-solvent system, EtOH:Water 40:60 w/w, single experiments, read-out: Saturated solubility, Expt 1-3): 0.0748 mg/mL (≈ 184 µM)
- solubility ([3]; ethanol/water 50:50 w/w co-solvent system, EtOH:Water 50:50 w/w, n=3, read-out: Saturated solubility, Average concentration ± SD): 0.335 ± 0.015 mg/mL (≈ 825 µM)
- solubility ([3]; ethanol/water 50:50 w/w co-solvent system, EtOH:Water 50:50 w/w, single experiments, read-out: Saturated solubility, Expt 1-3): 0.35 mg/mL (≈ 862 µM)
- solubility ([3]; ethanol/water 60:40 w/w co-solvent system, EtOH:Water 60:40 w/w, n=3, read-out: Saturated solubility, Average concentration ± SD): 1.05 ± 0.037 mg/mL (≈ 2600 µM)
- solubility ([3]; ethanol/water 60:40 w/w co-solvent system, EtOH:Water 60:40 w/w, single experiments, read-out: Saturated solubility, Expt 1-3): 1.09 mg/mL (≈ 2680 µM)
- solubility ([3]; ethanol/water 70:30 w/w co-solvent system, EtOH:Water 70:30 w/w, n=3, read-out: Saturated solubility, Average concentration ± SD): 2.73 ± 0.124 mg/mL (≈ 6720 µM)
- solubility ([3]; ethanol/water 70:30 w/w co-solvent system, EtOH:Water 70:30 w/w, single experiments, read-out: Saturated solubility, Expt 1-3): 2.86 mg/mL (≈ 7050 µM)
- Stability in analysis medium ([1]; 24 hours): stable
- cumulative permeation, Mean (±SD) [2, 6]: 3.38 μg/cm^2
- cumulative permeation, single cells [2, 6]: 3.38 μg/cm^2
- cumulative permeation, Mean (±SD) ([2]; 9 h, saturated solution of the drug in 70:30 w/w ethanol-water, — not defined here (Table 2: below LOD)): 1.53 ± 2.6 μg/cm^2
- cumulative permeation, Mean (±SD) ([2]; 20 h, saturated solution of the drug in 70:30 w/w ethanol-water): 3.89 ± 3.2 μg/cm^2

SMILES: CC/C(=C(\c1ccc(O)cc1)c1ccc(OCCNC)cc1)c1ccccc1 [endoxifen, 4-hydroxy-N-desmethyl-tamoxifen]
- solubility [3, 5]: 38.7 mg/mL (≈ 104000 µM)
- Stability in analysis medium ([1]; 24 hours): stable
- experimental permeation after 24 hours relative to in silico prediction ([2]; 37.29 μg/cm^2 versus about 0.98 μg/cm^2 in 24 hours): 40 times higher
- cumulative permeation, Mean (±SD) [2, 7]: — ((—) below the limit of detection (LOD) of 30 ng/ml.)
- cumulative permeation, single cells [2, 7]: — ((—) below the limit of detection (LOD) of 30 ng/ml.)
- cumulative permeation, Mean (±SD) ([2]; 9 hr, saturated solution in 70:30 w/w ethanol-water, donor 30.46 mg/mL): 0.31 ± 0.36 μg/cm^2
- cumulative permeation, Mean (±SD) ([2]; 20 hr, saturated solution in 70:30 w/w ethanol-water, donor 30.46 mg/mL): 17.24 ± 15.13 μg/cm^2
- solubility [4]: 6.26 ± 0.28 mg/mL (≈ 16800 µM)
